For one data set, the target named is T1, PHD2181-426 (Homo sapiens, UniProt Q9GZT9).
T1 construct: 181-426 (1 µM) was
Description: PHD2 inhibition assay: hydroxylation of HIF-1a CODD peptide by MALDI-TOF MS. The data set is classed as biochemical. As for the experimental part:
OGFOD1 inhibition assays were performed by determining the extent of hydroxylation of a 20mer fragment of human ribosomal protein S23 (RPS23) containing residues 51-70 (H2N- […]
-CONH2) by matrix-assisted laser desorption/ionization time-of-flight mass spectrometry (MALDI-TOF MS) using a Waters Micromass MALDI micro MX mass spectrometer and MassLynx 4.1, as previously described.[7,8] The optimized hydroxylation assay involved incubation of OGFOD1 (1 µM) with inhibitor (1 % v/v in DMSO) in the presence of (NH4)2Fe(SO4)2 (50 µM), the disodium salt of 2-oxoglutarate (25 µM), […]
OGFOD1 was pre-incubated with inhibitor for 5 min before initiation of the reaction via the addition of the other reagents. Reactions were quenched with formic acid (1 % v/v) after 15 min. Samples were prepared for MALDI using α-cyano-4-hydrocinnamic acid (CHCA; prepared in 50 % acetonitrile) as a matrix. Dose-responses were assessed in 8-point triplicates, normalized to a no enzyme negative control and a no inhibitor positive control. Non-linear regression analysis was performed using Prism (GraphPad).
PHD2181-426 inhibition assays were performed by determining the extent of hydroxylation of a HIF-1a CODD peptide substrate (HIF-1a residues 556-574), using MALDI-TOF MS as described with OGFOD1.[8] The optimized hydroxylation assay involved incubation of PHD2181-426 (1 µM) with inhibitor (1 % v/v in DMSO) in the presence of (NH4)2Fe(SO4)2 (10 µM), the disodium salt of 2-oxoglutarate (60 µM), sodium ascorbate (100 µM), and HIF-1aCODD 556-574 (50 µM) in HEPES (50 mM, pH 7.5) at 37 °C for 15 min. The FIH assay employed MALDI-TOF MS detection of hydroxylation. Reactions consisted of FIH […]
(50 nM), ankyrin peptide (50 µM; […]), the disodium salt of 2- […]
oxoglutarate (100 µM), sodium ascorbate (100 µM), and (NH4)2Fe(SO4)2 (10 µM), and […]

Bounds are passed on as bounds.

What is called IC50 is the point on the concentration scale where inhibition reaches its midpoint. By melting point is commonly meant the temperature of the solid-liquid transition.

T1 sequence (Q9GZT9 181-426 limits assumed): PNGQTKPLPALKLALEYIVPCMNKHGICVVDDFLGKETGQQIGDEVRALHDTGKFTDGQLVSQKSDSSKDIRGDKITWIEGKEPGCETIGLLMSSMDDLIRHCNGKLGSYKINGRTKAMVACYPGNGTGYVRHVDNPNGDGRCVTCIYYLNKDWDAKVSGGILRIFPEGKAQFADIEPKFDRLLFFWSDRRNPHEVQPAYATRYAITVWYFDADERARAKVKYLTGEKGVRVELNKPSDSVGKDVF

In turn, `Cn1c(O)c(C(=O)CCc2cccs2)c(=O)n(C)c1=O` [compound 42] yielded a melting point of 91 °C. In addition, the IC50 at PHD2181-426 is more than 100 µM.
On PHD2181-426, `Cn1c(O)c(C(=O)CCc2ccccc2)c(=O)n(C)c1=O` [compound 26] came in with an IC50 of more than 100 µM. Moreover, the “inhibition of PHD2 hydroxylation activity, in words” value against PHD2181-426 (inhibitor 100 µM, PHD2181-426 1 µM (Figures S2, S8)) was “Lack of inhibition”.

Values taken from paper PMC6471485, “Selective Inhibitors of a Human Prolyl Hydroxylase (OGFOD1) Involved in Ribosomal Decoding” (Chemistry (Weinheim an Der Bergstrasse, Germany), 2019).
